From patent US9017936B2, “Assays for agents affecting megakaryocyte development” (Shire Human Genetic Therapies, Inc., priority 2009, dated 2015)

How the values were obtained:
TRB-3 mRNA expression = experiment: TRB-3 expression assay (quantitative RT-PCR) in megakaryocyte cultures of expanded CD34+ cells; assay type: cell-based, human
Procedure: CD34+ cells were thawed, washed by centrifugation (300 g for 10 min at room temperature) in Stemspan™ medium (Stem Cell Technologies, London, UK) and then seeded in 48-well Falcon plates at a density of 1.5×10^5 cells/ml in the above culture medium supplemented with 100 U/ml penincillin, 0.1 mg/ml streptomycin, 0.25 μg/ml amphothericin B, 2% human umbilical cord blood plasma, 40 ng/ml TPO (Insight, UK), 50 ng/ml SCF, 100 ng/ml Flt3 ligand, and 10 ng/ml IL-3 (all from R&D Systems, Abingdon, UK). Cells were grown four days at 37° C. in a humidified incubator under 5% CO2/95% air.
The expanded cells were washed free of cytokines by centrifugation as above and re-suspended to 1.5×10^5 cells/ml by addition of fresh Stemspan™ culture medium containing 2% human umbilical cord plasma and 40 ng/ml TPO. Cells were then grown in 48-well Falcon plates at 37° C. in a humidified incubator under 5% CO2/95% air in the presence of either anagrelide, another test agent or an equivalent amount of vehicle (between 0.01% to 0.05% DMSO). At various time points the cells were harvested and processed for RNA extraction or for determination of CD61 antigen expression and total cell counting.
Cellular RNA was extracted with RNeasy reagent (Qiagen) according to the manufacturer's instructions and cDNA was prepared from 0.1-0.5 μg total RNA template using random hexamer primers and a High Capacity Reverse Transcription kit or a High Capacity RNA-to-cDNA Master Mix (Applied Biosystems). cDNA aliquots were either used immediately or stored at −20° C. for PCR analysis at a later stage. cDNA aliquots (equivalent to 5-10 ng of input RNA) were then analysed in duplicates by real-time PCR using gene-specific TaqMan probes on an ABI Prism 7500 Sequence Detection System (Applied Biosystems). Probes for TRB-3 (Hs00221754_m1), GpIIb (Hs00166246_m1), GUSB (Hs99999908_m1) and TBP (Hs99999910_m1) were commercially available from the Assay on Demand gene expression collection (Applied Biosystems). Thermal conditions were the following: 20 seconds at 95° C. followed by 40 cycles of 3 seconds at 94° C. and 30 seconds at 60° C. Reactions without cDNA were included as controls. Relative mRNA expression levels were calculated using the comparative cycle threshold (CT) method (Livak and Schmittgen, 2001) using the CT values obtained for β-glucuronidase (GUSB) or TATA Box binding protein (TBP) as internal references. For each target gene to be quantified, validation experiments were performed to determine that the efficiency of amplification of target and reference gene was approximately equal. When analysing dose responses EC50 values were calculated with Prism software (Version 4, GraphPad Software Inc, CA, USA).
In order to ascertain the sensitivity of the described method, dose-response curves were constructed based on the effect of anagrelide on TRB-3 mRNA expression using different numbers of cells. Cells were cultured for 4 days under standard MK culture conditions in the presence of increasing concentrations of anagrelide. RNA was extracted from the cells, and TRB-3 mRNA expression was determined by quantitative RT-PCR using β-glucuronidase as an endogenous reference. Results shown in FIG. 3 were expressed relative to the TRB-3 mRNA level detected in cells treated with vehicle alone. EC50 values were calculated using a sigmoidal dose response (variable slope) curve-fit model. Values in brackets represent the 95% CI. Error bars (SD) smaller than the size of the symbol are not shown.
Expanded CD34+ cells (see Materials and Methods Section of Example 1) were pre-incubated for various lengths of time under standard megakaryocyte culture conditions in the absence of the test agent and then treated with the test agent or an equivalent amount of vehicle for 24 hours prior to harvesting. TRB-3 mRNA expression was determined as described in the Materials and Methods Section of Example 1.

[1] = system: megakaryocytic cells from primary hematopoietic progenitor cells; experiment: Megakaryocyte growth in expanded CD34+ cells transduced with shControl or shTRB3; assay type: cell-based, human; settings: for MK cell number: cultured one week with anagrelide; for Inhibition of megakaryocyte growth: vs DMSO
From the text: UT7/mpl cells (clone 5.1) (Goncalves et al., Leukemia 12:1355-1366 (1998)) or human umbilical cord blood CD34+ hematopoietic cells were infected with pLKO.1-puro lentiviral vectors carrying short hairpin (sh) RNA sequences against human TRB-3 (designated shTRB3.1 to shTRB3.5) or a non-targeting scramble shRNA (designated shControl). shRNA clones were purchased from Sigma.
Expanded CD34+ cells (see Materials and Methods Section of Example 1) were infected as described above and then were sub-cultured under standard megakaryocyte culture conditions with anagrelide or an equivalent amount of vehicle for 2 days prior to addition of 1 μg/ml puromycin and further differentiation for 5 days.
CD61 expression of live cells was analysed by flow cytometry following double staining with 7-amino actinomycin D and the FITC-conjugated monoclonal antibody Y2/51 (Dako cytomation) or an isotype-matched control antibody; the latter was used to set a boundary between positive and negative cells.
Table 1 illustrates the effect of TRB-3 silencing on the ability of anagrelide-to inhibit megakaryocyte growth in cultures of primary hematopoietic progenitor cells. Expanded CD34+ cells were infected overnight with shControl or with a mixture of shTRB3.4 and shTRB3.5. Cells were then cultured for one week in the presence of anagrelide or an equivalent amount of vehicle under standard megakaryocyte culture conditions, except that 1 ug/ml puromycin was added after 2 days. The number of megakaryocytic cells was determined by cell counting of viable cells and flow cytometry.

[2] = system: phosphodiesterase type III; settings: cited from earlier work
[3] = shTRB3 (shTRB3.4 + shTRB3.5)-transduced cells

Compound | TRB-3 mRNA response to 24 h exposure (TRB-3 mRNA expression; 1 μM, 24 h exposure following the refractory phase (after initial 2-3 days)) | TRB-3 mRNA response to 24 h exposure (TRB-3 mRNA expression; 1 μM, exposure confined to the initial 2-3 days of culture) | TRB-3 expression, 24 h treatment after three days of culture vs continuous four day exposure (TRB-3 mRNA expression; 1 μM, last 24 h vs continuous) | extent of TRB-3 expression response (fold increase vs vehicle) (TRB-3 mRNA expression; 4 days, RNA extracted from 25,000 cells) [fold] | extent of TRB-3 expression response (fold increase vs vehicle) (TRB-3 mRNA expression; 4 days, RNA extracted from 200,000 cells) [fold] | EC50 (TRB-3 mRNA expression; Homo sapiens, 96 h, 4 days, standard MK culture, RNA extracted from 200,000 cells, 95% CI 9 to 27 nM, read-out: EC50 for increase in TRB-3 mRNA expression) [nM] | MK cell number ([1]; shControl-transduced cells) | Inhibition of megakaryocyte growth ([1]; shControl-transduced cells) [%] | MK cell number [1, 3] | Inhibition of megakaryocyte growth [1, 3] [%] | inhibition of phosphodiesterase type III [2] | effect on TRB-3 expression (TRB-3 mRNA expression)
O=C1CN2Cc3c(ccc(Cl)c3Cl)N=C2N1 [Anagrelide, 6,7-dichloro-1,5-dihydroimidazo (2,1-b)quinazolin-2(3H)-one] | sharp increase in TRB-3 expression | relatively weak | higher level of TRB-3 expression than if the drug was present for the entire four day period of culture | 1.8 | 3 | 15 | 106 ×10^3 | 49.3 | 202 ×10^3 | 21.5 | potent inhibitor | –
TPO: thrombopoietin, the primary signal for megakaryocyte production | – | – | – | – | – | – | – | – | – | – | – | reduces TRB-3 expression
